Test [1] has as its system MDA-MB-231, SK-Br3 and BT-474 breast cancer cells. The experiment in a line: Effects in other human breast cancer cell lines. It counts as cell-based. As to conditions: 50 μM; all three cell lines. The procedure:
(§1) Human MDA-MB-468 and MDA-MB-231 breast cancer cells and murine NIH 3T3 cells were obtained from the ATCC and cultured in DMEM medium. Human SK-Br3 and BT-474 breast cancer cells (ATCC) were cultured in McCoy's 5a medium and Hybri-Care medium, respectively. Mouse embryonic fibroblast (MEF) cells from p27 wild-type and p27 null mice were grown in DMEM. All media were supplemented with 10% fetal calf serum, 10 units/ml penicillin, and 10 μg/ml streptomycin. Subconfluent cells were treated with different concentrations of GGTI, FTI or DMSO vehicle for specific time periods. After treatment, cells were harvested by trypsinization.
To prepare whole cell lysates, cells were trypsinized, washed with phosphate buffered saline (PBS) twice, and lysed in 30 mM Hepes, pH 7.5, 10 mM NaCl, 5 mM MgCl2, 25 mM NaF, 1 mM EGTA, 1% Triton-X-100, 10% glycerol, protease inhibitor cocktail, 2 mM PMSF, 2 mM Na3VO4, and 6.4 mg/ml p-nitrophenylphosphate. […] The protein concentration was determined by the Bradford assay. […] Select bands were quantified using AlphaEaseFC densitometry software (AlphaInnotech, San Leandro, Calif.).
Adherent cells were harvested by trypsinization and diluted with 0.4% Trypan Blue dye and counted on a hemacytometer. Cells excluding the dye were scored as live cells, whereas cells absorbing the dye were scored as dead cells. […]

Test [2] has as its system MDA-MB-231 breast cancer tumors. The experiment in a line: Anti-tumor activity in the nude mouse tumor xenograft model. The following applies: 100 mg/kg daily i.p. The class given is in vivo, nude mice. As to the method:
Nude mice (nu/nu, Charles River, Wilmington, Mass.) were maintained in accordance with the Institutional Animal Care and Use Committee (IACUC) procedures and guidelines. MDA-MB-231 cells were harvested via trypsinization, pelleted at 805×g for 5 min, and re-suspended in a 50:50 mixture of sterile PBS and Matrigel (BD Biosciences) at 10×10^6 cells per 100 μl. A volume of 100 μl (˜10×10^6 cells) was injected orthotopically into the upper mammary fat pads of nude mice. The tumor xenografts were monitored by electronic caliper measurements and tumor volume (V) was calculated using the formula V=W^2L/2, where width (W) is […]. When the tumors reached ˜100 mm^3, the animals were randomized and injected intraperiteoneally daily with vehicle (70% DMSO), or 100 mg/kg GGTI-2417 or GGTI-2418, or every third day with GGTI-2418 (200 mg/kg. Tumors were measured every third day for 12-18 days.

A further test has as its system p27 null MEFs. Briefly: Trypan Blue exclusion assay in p27 null MEFs. The class given is cell-based, mouse. The following applies: 50 μM, 72 h. As to the method: as §1
Adherent cells were harvested by trypsinization and diluted with 0.4% Trypan Blue dye and counted on a hemacytometer. Cells excluding the dye were scored as live cells, whereas cells absorbing the dye were scored as dead cells. Cell proliferation was determined by dividing the number of live cells in the treated sample by the number of live cells in the control, and the degree of cell death was expressed as percentage of dead cells of the total cell number.

A further test concerns p27. The experiment in a line: Immunofluorescence of p27 in MDA-MB-468 cells. It counts as cell-based, human. As to conditions: 50 μM, 48 h. As to the method: MDA-MB-468 cells were plated on a glass coverslip and treated with 50 μM GGTI-2417 or DMSO as a control for 48 h. Medium was aspirated and the cells were washed twice with ice-cold sterile DPBS solution (Invitrogen, Carlsbad, Calif.), fixed with 4% paraformaldehyde at room temperature for 15 min, and then treated with 1% Nonidet P-40 for 30 min at room temperature. After blocking with 5% bovine serum albumin for 30 min at room temperature, cells were incubated with anti-p27 antibody (1:500) at room temperature for 1 h. After washing three times with DPBS solution, cells were incubated with FITC-conjugated secondary antibody (1:1000) for 1 h at room temperature. Cells were then washed three times with sterile DPBS solution, mounted using Vectashield mounting reagent (Vector Laboratories, Inc., Burlingame, Calif.) containing 4′,6′-diamidino-2-phenylindole (DAPI) for nuclear visualization, and analyzed using a Zeiss Axiovert Z-1 Imager microscope (Carl Zeiss, Oberkochen, Germany) at […]. Images were analyzed using ImagePro Plus 6.2 (Media Cybernetics, Bethesda, Md.).

For another test, the system named is Rap1 geranylgeranylation. Briefly: Rap1 geranylgeranylation in H-Ras transformed NIH 3T3 cells (Western blot). It counts as cell-based, murine. As to conditions: H-Ras/3T3 cells. The procedure:
as §1
To prepare whole cell lysates, cells were trypsinized, washed with phosphate buffered saline (PBS) twice, and lysed in 30 mM Hepes, pH 7.5, 10 mM NaCl, 5 mM MgCl2, 25 mM NaF, 1 mM EGTA, 1% Triton-X-100, 10% glycerol, protease inhibitor cocktail, 2 mM PMSF, 2 mM Na3VO4, and 6.4 mg/ml p-nitrophenylphosphate. Lysates were cleared by centrifugation at 12,000×g for 15 min, and the supernatants were collected as whole cell extracts. The protein concentration was determined by the Bradford assay. […] Select bands were quantified using AlphaEaseFC densitometry software (AlphaInnotech, San Leandro, Calif.). […]
In general terms: Immunoblotting shows a protein as a band on a membrane.

In test [3] the test system is MDA-MB-468 breast cancer cells. Briefly: Cell cycle analysis in MDA-MB-468 cells. It counts as cell-based, human. The following applies: 50 μM, control 51%. As to the method:
Cell cycle analysis based on DNA content was performed as described previously. Liang, J., et al., PKB/Akt phosphorylates p27, impairs nuclear import of p27 and opposes p27-mediated G1 arrest, Nat Med 8:1153-60 (2002). At each time point, cells were harvested, counted, and washed twice with PBS. Cells (2-3×10^6) were suspended in 0.5 ml PBS, fixed in 5 ml of 70% ethanol overnight at −20° C., centrifuged, re-suspended again in 1 ml of propidium iodide staining solution (50 μg/ml propidium iodide, 100 units/ml RNase A and 1 mg/ml of glucose in PBS), and incubated at room temperature for 30 min. The cells were then analyzed for cell cycle distribution using FACScan (BD Biosciences) and ModFit LT cell cycle analysis software (Verity Software, Topsham, Me.).

Broadly, the IC50 is the concentration that gives 50% inhibition. Regarding `COC(=O)[C@H](CC(C)C)NC(=O)N1CCN(Cc2nc[nH]c2C)C(=O)[C@@H]1Cc1ccccc1` [GGTI-2417], in test [1], the cell proliferation entry is “inhibited cell proliferation” and the p27 protein levels result is recorded as “induced p27 protein levels”. The molecule further yielded a tumor growth inhibition in test [2] of 76%. Further, the inhibition of proliferation in the test on p27 null MEFs (MEFs lacking p27) is listed as 61.6±8.1%. Further, in the test with p27 null MEFs (p27 null MEFs, basal 27.5±2.1%), the cell death entry is given as “did not increase the number of dead cells”. For the same molecule, in the test on p27, the “cytosolic p27 levels” value is given as “not affected significantly” and the “increase of nuclear levels of p27” value was determined as 6 fold. Moreover, the “selectivity for inhibition of cellular GGTase I compared to FTase” value in the test on Rap1 geranylgeranylation was more than 125 fold. In the test on Rap1 geranylgeranylation (48 h, read-out: IC50, inhibition of Rap1 geranylgeranylation), the IC50 was 400 ± 100 nM. Also, the “fraction of cells in G0/G1” value in test [3] is recorded as 78%.

The values are drawn from patent US10946012B2, “Methods for inducing tumor regression, inhibiting tumor growth, and inducing apoptosis in breast tumors with geranylgeranyltransferase I inhibitors” (H. Lee Moffitt Cancer Center and Research Institute, Inc., priority 2009, dated 2021).
